# Measurements from patent publication US20080214662A1, “METHODS FOR THE TREATMENT OF DEMENTIA BASED ON APO E GENOTYPE” (priority 2002, published 2008).
# “And” between values parts separate entries of the source, which are not always exact repeats. Equal values may be shown once.
# System: outpatients with probable AD
# Test: Pharmacogenetic analysis of ADAS-Cog response to rivastigmine by ApoE ε4 carrier status in Phase III trials ENA 713 B351 and ENA 713 B352
# Assay type: in vivo, human
# Set-up: key to mean of change from baseline in ADAS-Cog score at end of study: change from baseline in ADAS-Cog score points
# Conditions: for response to treatment (non-deterioration, Table 7), share of individuals: rivastigmine greater than or equal to 6 mg; for 4-point improvement in the ADAS-Cog score (number of individuals) / Deterioration in the ADAS-Cog score (number of individuals) / No 4-point improvement in the ADAS-Cog score (number of individuals) / Non-deterioration in the ADAS-Cog score (number of individuals): 26 weeks
# Experimental: A pharmacogenetic study of the effect of a patients ApoE ε4 genotype on the response to the ChEI, rivastigmine was conducted. Rivastigmine tartrate is an inhibitor of both AChE and BuChE and is commercially available under the name EXELON™ from Novartis Pharmaceuticals Corporation, East Hanover, N.J. Individuals In the trial were divided into treatment groups depending on the dose they received, namely <6 mg/day of rivastigmine, 6-12 mg/day of rivastigmine and placebo. Each treatment group was analyzed separately. Individuals in each treatment group were then classified as ApoE ε4 carriers or non-carriers based on the genotype data. A significant association (P=0.0071) between the ApoE ε4 carriers and the greater than 4 point improvement was found in the 6-12 mg group. In contrast, the association of the ApoE ε4 allele with non-deterioration in the study was not significant (P=0.1172) in the same group.
# The Phase III clinical trials ENA 713 B352 and ENA 713 B351 are multicenter, double-blind, placebo-controlled, parallel-group study to examine the effect of rivastigmine in outpatients with probable AD. Both trials are conducted over a period of 26 weeks. ENA 713 B351 has 4 treatment arms with comprising of rivastigmine 3 mg/day, rivastigmine 6 mg/day, rivastigmine 9 mg/day or placebo. The initial dose-titration phase (Weeks 1-12) was followed by a fixed-dose phase (Week 13-26), for a total randomized double-blind treatment period of 26 weeks. ENA 713 B352 has 3 treatment arms with comprising of rivastigmine 1-4 mg/day, rivastigmine 6-12 mg/day, and placebo. The initial dose-titration phase (Weeks 1-7) was followed by a fixed-dose phase (Week 8-26), for a total randomized, double-blind treatment period of 26 weeks. The blood samples were handled by the Roskamp Institute, University of South Florida.
# Individuals in the trial were classified as being responders if the final change from their baseline ADAS-COG scores is less than or equal to 4-points. A Fisher's Exact test was used to find an association between ApoE genotype and response.
# Individuals in the trial were classified as being responders if the final change from their baseline ADAS-Cog scores is less than or equal to 0 points. A Fisher's Exact test was used to find an association between ApoE genotype and response.
# Treatment differences in the ApoE ε4 and non-ApoE ε4 carriers were also analyzed. Treatment differences being measured as the 4-point decrease and the non-deterioration classes. An exact Cochran-Armitage test for trend is used to determine if the numbers of responders increase with dose of rivastigmine among each genotype group.
# The trial population was divided into three groups based on the treatment they received. The three groups are placebo, rivastigmine <6 mg/day and rivastigmine ≧6 mg/day. All analyses were conducted within each group separately. The genotype data for the ApoE were re-coded for the presence or absence of the […]. The re-coded genotype data were used as the categorical variable.
# A non-parametric analysis of variance (ANOVA) model was used for the analysis. Change from baseline in the ADAS-Cog score is used as the dependent variable.
# [1] = rivastigmine <6 mg/day, No ε4 allele
# [2] = rivastigmine <6 mg/day, ε4 allele carriers
# [3] = rivastigmine ≧6 mg/day, No ε4 allele
# [4] = rivastigmine ≧6 mg/day, No ε4 allele, listed as Rivastigmine
# [5] = rivastigmine ≧6 mg/day, ε4 allele carriers
smiles,measurement,setting,value
CCN(C)C(=O)Oc1cccc([C@H](C)N(C)C)c1 [rivastigmine],"response to treatment (non-deterioration, Table 7), share of individuals",ApoE ε4 carriers,65%
same,mean of change from baseline in ADAS-Cog score at end of study,"Rivastigmine <6 mg/day, No ε4 allele",1.444
same,mean of change from baseline in ADAS-Cog score at end of study,"Rivastigmine <6 mg/day, ε4 allele",1.293
same,mean of change from baseline in ADAS-Cog score at end of study,"Rivastigmine ≧6 mg/day, No ε4 allele, listed as Rivastigmine",0.39
same,mean of change from baseline in ADAS-Cog score at end of study,"Rivastigmine ≧6 mg/day, ε4 allele",−1.74
same,"response to treatment (non-deterioration, Table 7), share of individuals",non-ApoE ε4 carriers,48.7%
same,4-point improvement in the ADAS-Cog score (number of individuals),[1],4
same,Deterioration in the ADAS-Cog score (number of individuals),[1],24
same,No 4-point improvement in the ADAS-Cog score (number of individuals),[1],32
same,Non-deterioration in the ADAS-Cog score (number of individuals),[1],12
same,No 4-point improvement in the ADAS-Cog score (number of individuals),"rivastigmine <6 mg/day, No ε4 allele, listed as Rivastigmine",37
same,4-point improvement in the ADAS-Cog score (number of individuals),[2],12
same,Deterioration in the ADAS-Cog score (number of individuals),[2],63
same,No 4-point improvement in the ADAS-Cog score (number of individuals),[2],83
same,Non-deterioration in the ADAS-Cog score (number of individuals),[2],32 and 12
same,4-point improvement in the ADAS-Cog score (number of individuals),[3],4
same,Deterioration in the ADAS-Cog score (number of individuals),[3],21
same,No 4-point improvement in the ADAS-Cog score (number of individuals),[3],37
same,Non-deterioration in the ADAS-Cog score (number of individuals),[3],20
same,4-point improvement in the ADAS-Cog score (number of individuals),[4],26
same,No 4-point improvement in the ADAS-Cog score (number of individuals),[4],54
same,4-point improvement in the ADAS-Cog score (number of individuals),[5],26
same,Deterioration in the ADAS-Cog score (number of individuals),[5],28
same,No 4-point improvement in the ADAS-Cog score (number of individuals),[5],54
same,Non-deterioration in the ADAS-Cog score (number of individuals),[5],52
